Data on 38 compounds can be found in US8546404B2, “Compounds that are ERK inhibitors” (Merck Sharp & Dohme, priority 2005, dated 2013).

Structures are written as SMILES.

What is called AUC is concentration integrated over time. The low end stands for less exposure, the high end for more exposure. The IC50 is the point on the concentration scale where inhibition reaches its midpoint.

Series [1] is described as follows: Cassette Accelerating Rapid Rat Screen (CARRS), AUC during the first 6 hours. It is filed as in vivo, Male Sprague-Dawley rats. The settings on record: male, Sprague-Dawley, plasma, 10 mg/kg, PO, AUC during the first 6 hours (AUC6hr). As to the method: The AUC (Area Under the Concentration-Time Curve During the First 6 Hours (AUC6hr) in Table 30 Below was Determined Using the Protocol of Cassette Accelerating Rapid Rat Screen (CARRS)
Animal Dosing and Sample Collection
Male Sprague-Dawley rats (Charles River, Co.) were pre-cannulated (femoral artery) in order to facilitate precise blood sampling times, and to reduce the stress on the animals caused by serial bleedings. Following an overnight fast, two rats were dosed orally with one compound at a dose of 10 mg/kg in a 5-mL/kg dose volume. Blood was collected into heparin-containing tubes serially from each animal at 0.5, 1, 2, 3, 4 and 6 h post-dosing and centrifuged to generate plasma. Approximately 100 μL of plasma were collected at the individual time points. The plasma samples were stored at −20° C. until analysis.
Plasma Sample and Standard Curve Preparation
A set of 12 rat plasma samples was generated for each NCE (i.e. 6 timepoints and n=2 rats). These 12 samples were pooled across the two rats at each timepoint to provide 6 pooled samples (one sample per time point) for each NCE. The pooled samples were assayed as cassettes of six (36 samples total) to provide data on the six compounds. The 50-μL aliquots of the 36 plasma samples were placed into individual wells of a 96-well plate. An additional compound (often a structural analog of the test compounds) was selected as the internal standard. A mini-calibration curve was prepared (three points plus a zero) for each compound assayed. Drug-free rat plasma was measured into 1-mL aliquots and each aliquot was spiked with known concentrations of the compounds to generate standards of the desired concentrations. The concentrations of the standards were chosen to bracket the expected concentration of the pooled samples based on historical data from previous studies on other compounds. For this work, the standards were set to contain concentrations of 25, 250 and 2500 ng NCE/mL plasma. The plasma standards were precipitated in duplicate along with the samples. Protein precipitation occurred after addition of 150 μL of acetonitrile containing the internal standard at a concentration of 1 ng/mL into each sample well using the Tomtec Quadra 96 system. The precipitated samples and standards were vortexed and centrifuged in the 96-well plate. Approximately 50-100 μL of the supernatant were removed and placed into a fresh 96-well plate using the Tomtec Quadra 96 system. A volume of 5-10 μL of the supernatant was used for analysis by HPLC-MS/MS. The mini-standard curve was run in duplicate, once before and once after the samples. Thus, a total of 14 study samples plus standards were analyzed per compound. In addition, solvent blanks were injected before and after each set of 14 and after the highest calibration standard for each compound; therefore, a total of 103 injections were made into each HPLC system for each set of six compounds. Multiple solvent blank injections could be made from a single well. Twelve solvent blank wells were designated in each 96-well plate. Thus, one batch (cassette) of six NCEs was prepared and assayed using one 96-well plate format.
All the compounds were analyzed using selected reaction monitoring (SRM) methods with LC/MS/MS instruments. Once the method development had been completed, the assay was quickly set up using a standard injection sequence template for the CARRS assay.

The target of series [2] is fully phosphorylated, active Mouse ERK2 protein (Mus musculus (Mouse), UniProt P63085). Put plainly: Active ERK2 Assay (IMAP format). It is filed as biochemical. The settings on record: read-out: AERK2 IC50. How it is done:
Activated ERK2 activity was also determined in the IMAP assay format using the procedure outlined above. […] Reactions proceeded for 30 minutes before termination by addition of 60 μl IMAP detection beads in binding buffer. Plates were read as above after 30 minute binding equilibration.

Sequence of fully phosphorylated, active Mouse ERK2 protein (P63085 whole entry): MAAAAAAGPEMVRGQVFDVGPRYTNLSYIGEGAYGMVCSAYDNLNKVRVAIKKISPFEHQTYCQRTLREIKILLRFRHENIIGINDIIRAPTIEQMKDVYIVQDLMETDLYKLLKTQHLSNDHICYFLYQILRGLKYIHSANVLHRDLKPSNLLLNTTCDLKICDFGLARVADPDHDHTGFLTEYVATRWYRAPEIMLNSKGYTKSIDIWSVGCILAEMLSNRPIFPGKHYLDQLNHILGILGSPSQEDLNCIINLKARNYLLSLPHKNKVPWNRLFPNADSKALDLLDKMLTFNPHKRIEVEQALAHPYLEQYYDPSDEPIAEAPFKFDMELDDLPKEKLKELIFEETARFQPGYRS

As for `COC[C@@]1(C(=O)Nc2ccc3[nH]nc(-c4ccnc(C5CC5)c4)c3c2)CCN(CC(=O)N2CC=C(c3ccc(-c4ncccn4)cc3)CC2)C1` [Example 336, 3-Methoxymethyl-1-{2-[4-(4-pyrimidin-2-yl-phenyl)-3,6-dihydro-2H-pyridin-1-yl]-acetyl}-pyrrolidine-3-carboxylic acid [3-(2-cyclopropyl-pyridin-4-yl)-1H-indazol-5-yl]-amide], the AUC in series [1] is 7.22 µM·h. For the compound `CO[C@@]1(C(=O)Nc2ccc3[nH]nc(-c4ccnc(C5CC5)c4)c3c2)CCN(CC(=O)N2CC=C(c3ccc(-c4ncccn4)cc3)CC2)C1` [Example 459], in series [1], the AUC is 1.2 µM·h. In addition, the IC50 in series [2] was 2.5 nM. In the case of `CO[C@@]1(C(=O)Nc2ccc3[nH]nc(-c4ccc(F)cc4)c3c2)CCN(CC(=O)N2CCN(c3cc(F)c(-c4ncccn4)cc3F)CC2)C1` [Example 663], the half-inhibitory concentration (IC50) in series [2] was 0.16 to 18 nM. With `CO[C@@]1(C(=O)Nc2ccc3[nH]nc(-c4cc[n+]([O-])c(C)c4)c3c2)CCN(CC(=O)N2CC=C(c3ccc(-c4ncccn4)cc3)CC2)C1` [Example 666], the IC50 in series [2] lay in the range of 0.16 to 18 nM. Still for that read-out and setting: the result for `CO[C@@]1(C(=O)Nc2ccc3[nH]nc(-c4cc[n+]([O-])c(C5CC5)c4)c3c2)CCN(CC(=O)N2CCC(c3ccc(-c4ncccn4)cc3)CC2)C1` [Example 669] reads 0.16 to 18 nM; that for `CO[C@@]1(C(=O)Nc2ccc3[nH]nc(-c4cc[n+]([O-])c(C5CC5)c4)c3c2)CCN(CC(=O)N2CC=C(c3ccc(-c4ncccn4)cc3)CC2)C1` [Example 670], 0.16 to 18 nM.

Take `COc1cc(C2CCN(C(=O)CN3CC[C@@](OC)(C(=O)Nc4ccc5[nH]nc(-c6ccnc(C7CC7)c6)c5c4)C3)CC2)ccc1-c1ncccn1` [Example 672]: in series [2], the IC50 lay within 0.16 to 18 nM. Still for that read-out and setting: the result for `COc1cc(C2=CCN(C(=O)CN3CC[C@@](OC)(C(=O)Nc4ccc5[nH]nc(-c6ccnc(C7CC7)c6)c5c4)C3)CC2)ccc1-c1ncccn1` [Example 673] reads 0.16 to 18 nM; that for `CO[C@@]1(C(=O)Nc2ccc3[nH]nc(-c4ccnc(C(F)F)c4)c3c2)CCN(CC(=O)N2CCC(C)(c3ccc(-c4ncccn4)cc3)CC2)C1` [Example 679], 0.16 to 18 nM; that for `CO[C@@]1(C(=O)Nc2ccc3[nH]nc(-c4ccnc(C5CC5)c4)c3c2)CCN(CC(=O)N2CCC(C)(c3ccc(-c4ncccn4)cc3)CC2)C1` [Example 680], 0.16 to 18 nM. With `CO[C@@]1(C(=O)Nc2ccc3[nH]nc(-c4ccnc(C(F)(F)F)c4)c3c2)CCN(CC(=O)N2CC=C(c3ccc(-c4ncccn4)cc3F)CC2)C1` [Example 682], the IC50 in series [2] fell in the range of 0.16 to 18 nM. Same read-out and setting: the value for `CO[C@@]1(C(=O)Nc2ccc3[nH]nc(-c4ccc(F)cc4)c3c2)CCN(CC(=O)N2CC=C(c3ccc(-c4ncccn4)s3)CC2)C1` [Example 737] was 0.16 to 18 nM; that for `COCCOc1ccc(-c2n[nH]c3ccc(NC(=O)[C@]4(OC)CCN(CC(=O)N5CC=C(c6ncc(-c7ncccn7)cc6F)CC5)C4)cc23)cc1` [Example 738] was 0.16 to 18 nM; that for `COCCOc1cc(-c2n[nH]c3ccc(NC(=O)[C@]4(OC)CCN(CC(=O)N5CC=C(c6ccc(-c7ncccn7)cc6)CC5)C4)cc23)ccc1F` [Example 741] was 0.16 to 18 nM. Same read-out and setting: the value for `COCc1cc(-c2n[nH]c3ccc(NC(=O)[C@]4(OC)CCN(CC(=O)N5CC=C(c6ccc(-c7ncccn7)cc6F)CC5)C4)cc23)ccc1F` [Example 747] was 0.16 to 18 nM; that for `COCCOc1ccc(-c2n[nH]c3ccc(NC(=O)[C@]4(OC)CCN(CC(=O)N5CC=C(c6ccc(-c7ncccn7)cc6)CC5)C4)cc23)cc1F` [Example 749] was 0.16 to 18 nM; that for `CO[C@@]1(C(=O)Nc2ccc3[nH]nc(-c4ccc(F)c(OCCO)c4)c3c2)CCN(CC(=O)N2CC=C(c3ccc(-c4ncccn4)cc3)CC2)C1` [Example 755] was 0.16 to 18 nM.

With `CO[C@@]1(C(=O)Nc2ccc3[nH]nc(-c4ccc(F)c(NCCO)c4)c3c2)CCN(CC(=O)N2CC=C(c3ccc(-c4ncccn4)cc3)CC2)C1` [Example 757], the IC50 in series [2] lay within 0.16 to 18 nM. Still for that read-out and setting: the value for `CO[C@@]1(C(=O)Nc2ccc3[nH]nc(-c4ccc(NCCO)cc4)c3c2)CCN(CC(=O)N2CC=C(c3ccc(-c4ncccn4)cc3)CC2)C1` [Example 758] was 0.16 to 18 nM. On the same count and under the same terms, the value for `COCCOc1ccc(-c2n[nH]c3ccc(NC(=O)[C@]4(OC)CCN(CC(=O)N5CCC(c6ccc(-c7ncccn7)cc6)CC5)C4)cc23)cc1` [Example 764] was 0.16 to 18 nM; that for `COCCOc1ccc(-c2n[nH]c3ccc(NC(=O)[C@]4(OC)CCN(CC(=O)N5CC=C(c6ncc(-c7ncccn7)s6)CC5)C4)cc23)cc1` [Example 765] was 0.16 to 18 nM; that for `COCCOc1ccc(-c2n[nH]c3ccc(NC(=O)[C@]4(OC)CCN(CC(=O)N5CC=C(c6ccc(-c7ncccn7)cc6F)CC5)C4)cc23)cc1` [Example 767] was 0.16 to 18 nM. Same read-out and setting: the result for `CO[C@@]1(C(=O)Nc2ccc3[nH]nc(-c4ccc(F)cc4)c3c2)CCN(CC(=O)N2CC=C(c3ncc(-c4ncccn4)s3)CC2)C1` [Example 776] reads 0.16 to 18 nM; that for `CO[C@@]1(C(=O)Nc2ccc3[nH]nc(-c4ccnc(C5CC5)c4)c3c2)CCN(CC(=O)N2CC=C(c3ncc(-c4ncccn4)s3)CC2)C1` [Example 777], 0.16 to 18 nM. Turning to `CO[C@@]1(C(=O)Nc2ccc3[nH]nc(C4CCOCC4)c3c2)CCN(CC(=O)N2CC=C(c3ccc(-c4ncccn4)cc3)CC2)C1` [Example 779], the IC50 in series [2] fell in the range of 0.16 to 18 nM. The same measure, in the same setting: the result for `CO[C@@]1(C(=O)Nc2ccc3[nH]nc(-c4ccnc(C(F)F)c4)c3c2)CCN(CC(=O)N2CC=C(c3ccc(-c4ncccn4)cc3)CC2)C1` [Example 785] reads 0.16 to 18 nM; that for `CO[C@@]1(C(=O)Nc2ccc3[nH]nc(-c4ccnc(C(F)F)c4)c3c2)CCN(CC(=O)N2CCC(c3ccc(-c4ncccn4)cc3)CC2)C1` [Example 786], 0.16 to 18 nM; that for `CO[C@@]1(C(=O)Nc2ccc3[nH]nc(-c4ccc(F)c(CO)c4)c3c2)CCN(CC(=O)N2CC=C(c3ccc(-c4ncccn4)cc3)CC2)C1` [Example 787], 0.16 to 1.5 nM. Still for that read-out and setting: the result for `CO[C@@]1(C(=O)Nc2ccc3[nH]nc(-c4ccnc(C(F)(F)F)c4)c3c2)CCN(CC(=O)N2CCC(c3ccc(-c4ncccn4)cc3)CC2)C1` [Example 788] reads 0.16 to 18 nM; that for `CO[C@@]1(C(=O)Nc2ccc3[nH]nc(-c4ccnc(C)c4)c3c2)CCN(CC(=O)N2CCC(c3ccc(-c4ncccn4)cc3)CC2)C1` [Example 789], 0.16 to 18 nM; that for `CO[C@@]1(C(=O)Nc2ccc3[nH]nc(-c4ccc(F)c(F)c4)c3c2)CCN(CC(=O)N2CCC(c3ccc(-c4ncccn4)cc3)CC2)C1` [Example 792], 0.16 to 18 nM. Still for that read-out and setting: the value for `CO[C@@]1(C(=O)Nc2ccc3[nH]nc(-c4ccc(N(C)C)cc4)c3c2)CCN(CC(=O)N2CCC(c3ccc(-c4ncccn4)cc3)CC2)C1` [Example 793] was 0.16 to 18 nM; that for `CO[C@@]1(C(=O)Nc2ccc3[nH]nc(-c4ccc(F)c(CO)c4)c3c2)CCN(CC(=O)N2CCC(c3ccc(-c4ncccn4)cc3)CC2)C1` [Example 794] was 0.16 to 18 nM; that for `CO[C@@]1(C(=O)Nc2ccc3[nH]nc(-c4cn[nH]c4)c3c2)CCN(CC(=O)N2CC=C(c3ccc(-c4ncccn4)cc3)CC2)C1` [Example 796] was 0.16 to 18 nM.

For the compound `CO[C@@]1(C(=O)Nc2ccc3[nH]nc(-c4ccc5c(c4)OCO5)c3c2)CCN(CC(=O)N2CCN(c3ccc(-c4ncccn4)cn3)C[C@H]2C)C1` [Example 799], the IC50 in series [2] fell in the range of 0.16 to 18 nM.

Turning to `CCc1cc(-c2n[nH]c3ccc(NC(=O)[C@]4(OC)CCN(CC(=O)N5CC=C(c6nccs6)CC5)C4)cc23)ccn1` [Example 802], in series [2], the IC50 was 0.16 to 18 nM. Same read-out and setting: the value for `CO[C@@]1(C(=O)Nc2ccc3[nH]nc(-c4ccc(OCCO)cc4)c3c2)CCN(CC(=O)N2CC=C(c3ccc(-c4ncccn4)cc3)CC2)C1` [Example 822] was 0.16 to 18 nM; that for `CO[C@@]1(C(=O)Nc2ccc3[nH]nc(-c4ccc(F)cc4)c3c2)CCN(CC(=O)N2CC=C(c3ccc(-c4ncc(N)cn4)cc3)CC2)C1` [Example 823] was 0.16 to 18 nM.
